Key:
Assay in all cases: KINOMEscan
Assay type in all cases: binding
Conditions in all cases: read-out: % control activity remaining
FLT3(R834Q) = molecular target: T1, FLT3(R834Q) (Homo sapiens, UniProt P36888, R834Q)
T1 construct: purchased Eurofins DiscoverX KINOMEscan
T1 sequence (P36888 27-993 R834Q): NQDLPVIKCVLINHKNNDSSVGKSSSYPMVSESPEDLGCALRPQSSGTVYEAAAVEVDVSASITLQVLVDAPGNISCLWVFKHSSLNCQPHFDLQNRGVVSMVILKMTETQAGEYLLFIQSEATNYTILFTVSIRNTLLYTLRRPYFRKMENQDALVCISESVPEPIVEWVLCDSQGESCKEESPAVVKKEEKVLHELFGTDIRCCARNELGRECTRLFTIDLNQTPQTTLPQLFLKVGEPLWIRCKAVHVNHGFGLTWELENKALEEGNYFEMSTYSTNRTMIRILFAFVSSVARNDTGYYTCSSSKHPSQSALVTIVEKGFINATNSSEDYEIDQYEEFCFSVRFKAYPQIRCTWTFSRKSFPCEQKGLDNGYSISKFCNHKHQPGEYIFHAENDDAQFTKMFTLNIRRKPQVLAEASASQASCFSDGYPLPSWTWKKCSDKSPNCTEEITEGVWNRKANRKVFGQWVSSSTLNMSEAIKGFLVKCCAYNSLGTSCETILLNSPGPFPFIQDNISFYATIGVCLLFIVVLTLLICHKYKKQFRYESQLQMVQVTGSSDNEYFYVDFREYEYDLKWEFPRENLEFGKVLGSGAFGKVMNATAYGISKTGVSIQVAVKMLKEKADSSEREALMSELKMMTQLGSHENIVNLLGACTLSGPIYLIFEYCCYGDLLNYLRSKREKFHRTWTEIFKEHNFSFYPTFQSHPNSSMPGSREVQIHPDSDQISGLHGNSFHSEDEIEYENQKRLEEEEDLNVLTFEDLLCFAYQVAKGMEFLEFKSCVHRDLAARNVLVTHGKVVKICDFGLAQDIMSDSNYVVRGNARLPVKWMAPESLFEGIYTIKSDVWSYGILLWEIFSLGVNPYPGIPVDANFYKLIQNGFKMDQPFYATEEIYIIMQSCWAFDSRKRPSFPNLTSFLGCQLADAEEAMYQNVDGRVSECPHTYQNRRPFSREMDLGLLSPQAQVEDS

NEK10 = molecular target: T2, NEK10 (Homo sapiens, UniProt Q6ZWH5)
T2 construct: purchased Eurofins DiscoverX KINOMEscan
T2 sequence (Q6ZWH5 1-1172): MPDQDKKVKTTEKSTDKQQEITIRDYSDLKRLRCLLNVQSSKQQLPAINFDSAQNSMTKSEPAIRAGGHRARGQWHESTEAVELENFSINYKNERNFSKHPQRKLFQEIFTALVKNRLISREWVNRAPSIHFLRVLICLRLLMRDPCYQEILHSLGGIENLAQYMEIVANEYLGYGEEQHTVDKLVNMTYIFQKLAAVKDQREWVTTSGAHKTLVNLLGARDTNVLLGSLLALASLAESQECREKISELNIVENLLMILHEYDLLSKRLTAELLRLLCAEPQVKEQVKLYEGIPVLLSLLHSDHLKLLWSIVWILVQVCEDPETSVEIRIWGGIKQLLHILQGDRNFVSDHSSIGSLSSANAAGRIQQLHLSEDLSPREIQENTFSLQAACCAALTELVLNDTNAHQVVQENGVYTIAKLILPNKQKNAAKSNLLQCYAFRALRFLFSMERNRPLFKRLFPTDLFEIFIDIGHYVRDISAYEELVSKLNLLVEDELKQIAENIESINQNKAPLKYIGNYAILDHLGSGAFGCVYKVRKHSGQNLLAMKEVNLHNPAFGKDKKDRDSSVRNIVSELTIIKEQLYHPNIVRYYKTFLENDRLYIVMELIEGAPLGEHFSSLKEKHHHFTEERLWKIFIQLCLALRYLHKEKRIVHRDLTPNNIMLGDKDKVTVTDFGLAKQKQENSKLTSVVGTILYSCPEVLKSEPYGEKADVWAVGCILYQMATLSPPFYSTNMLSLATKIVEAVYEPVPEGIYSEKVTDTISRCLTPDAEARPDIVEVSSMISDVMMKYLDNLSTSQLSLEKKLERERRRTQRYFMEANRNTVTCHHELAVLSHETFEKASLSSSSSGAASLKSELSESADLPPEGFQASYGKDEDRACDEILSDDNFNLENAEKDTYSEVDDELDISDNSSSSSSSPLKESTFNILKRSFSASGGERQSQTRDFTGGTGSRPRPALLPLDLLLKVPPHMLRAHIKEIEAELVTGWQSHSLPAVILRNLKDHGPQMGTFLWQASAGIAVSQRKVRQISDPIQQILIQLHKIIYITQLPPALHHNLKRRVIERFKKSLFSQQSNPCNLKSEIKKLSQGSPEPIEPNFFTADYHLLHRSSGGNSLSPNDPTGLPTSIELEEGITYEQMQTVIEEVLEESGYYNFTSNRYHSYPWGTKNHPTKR

NIM1 = molecular target: T3, NIM1 (Homo sapiens, UniProt Q8IY84)
T3 construct: purchased Eurofins DiscoverX KINOMEscan

PIK3CA(H1047Y) = molecular target: T4, PIK3CA(H1047Y) (Homo sapiens, UniProt P42336, H1047Y)
T4 construct: purchased Eurofins DiscoverX KINOMEscan

PKAC-beta = molecular target: T5, PKAC-beta (Homo sapiens, UniProt P22694)
T5 construct: purchased Eurofins DiscoverX KINOMEscan

T4 sequence (P42336 whole entry H1047Y): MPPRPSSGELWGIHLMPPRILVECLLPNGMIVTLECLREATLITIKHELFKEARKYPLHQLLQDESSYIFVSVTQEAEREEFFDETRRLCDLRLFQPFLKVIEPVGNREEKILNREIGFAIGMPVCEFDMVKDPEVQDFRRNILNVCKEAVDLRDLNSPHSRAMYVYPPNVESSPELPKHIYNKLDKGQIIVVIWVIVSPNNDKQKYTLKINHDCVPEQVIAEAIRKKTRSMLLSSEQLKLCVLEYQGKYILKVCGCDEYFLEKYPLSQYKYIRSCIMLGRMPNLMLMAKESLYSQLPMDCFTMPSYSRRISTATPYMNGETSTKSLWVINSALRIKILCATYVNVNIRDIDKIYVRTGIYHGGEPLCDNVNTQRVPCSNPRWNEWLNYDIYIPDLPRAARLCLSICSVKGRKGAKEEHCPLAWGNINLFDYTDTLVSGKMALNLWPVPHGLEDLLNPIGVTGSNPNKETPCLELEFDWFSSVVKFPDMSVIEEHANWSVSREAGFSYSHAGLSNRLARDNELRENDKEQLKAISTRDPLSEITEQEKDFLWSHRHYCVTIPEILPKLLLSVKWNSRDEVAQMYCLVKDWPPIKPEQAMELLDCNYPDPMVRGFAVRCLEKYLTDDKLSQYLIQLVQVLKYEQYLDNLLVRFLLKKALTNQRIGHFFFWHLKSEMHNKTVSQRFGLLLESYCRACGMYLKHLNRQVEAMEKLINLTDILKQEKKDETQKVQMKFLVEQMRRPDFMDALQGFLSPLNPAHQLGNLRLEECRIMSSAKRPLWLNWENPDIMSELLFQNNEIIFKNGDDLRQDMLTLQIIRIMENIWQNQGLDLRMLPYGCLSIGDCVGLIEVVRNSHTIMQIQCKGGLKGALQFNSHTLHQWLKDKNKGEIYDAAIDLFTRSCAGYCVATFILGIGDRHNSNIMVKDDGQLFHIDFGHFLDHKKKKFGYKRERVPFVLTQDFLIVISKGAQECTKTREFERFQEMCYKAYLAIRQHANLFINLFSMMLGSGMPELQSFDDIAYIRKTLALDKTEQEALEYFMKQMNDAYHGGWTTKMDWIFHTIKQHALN
T3 sequence (Q8IY84 whole entry): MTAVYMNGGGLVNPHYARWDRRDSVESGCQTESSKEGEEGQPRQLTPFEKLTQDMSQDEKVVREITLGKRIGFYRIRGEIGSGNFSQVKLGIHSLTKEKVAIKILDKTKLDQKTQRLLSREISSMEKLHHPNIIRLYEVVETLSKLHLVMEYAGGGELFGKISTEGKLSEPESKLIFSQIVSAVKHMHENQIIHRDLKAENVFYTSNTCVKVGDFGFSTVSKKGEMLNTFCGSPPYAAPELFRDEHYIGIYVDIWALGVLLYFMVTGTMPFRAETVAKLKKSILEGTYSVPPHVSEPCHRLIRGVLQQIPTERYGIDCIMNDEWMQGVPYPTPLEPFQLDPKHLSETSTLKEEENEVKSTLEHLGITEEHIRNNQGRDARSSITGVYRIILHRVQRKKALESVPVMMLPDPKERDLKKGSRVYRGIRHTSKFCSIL

Structure (SMILES)	remaining binding at 1 µM (FLT3(R834Q)) [%]	remaining binding at 1 µM (NEK10) [%]	remaining binding at 1 µM (NIM1) [%]	remaining binding at 1 µM (PIK3CA(H1047Y)) [%]	remaining binding at 1 µM (PKAC-beta) [%]
Clc1cc(NCC2CC2)c2ncc(-c3ccc4[nH]ncc4c3)n2n1 [compound 2, 6-Chloro-N-(cyclopropylmethyl)-3-(1H-indazol-5-yl)imidazo[1,2-b]pyridazin-8-amine]	94	92	97	89	86
O=C(CN1CCOCC1)N[C@H]1CC[C@H](Nc2cc(Cl)nn3c(-c4ccc5[nH]ncc5c4)cnc23)CC1 [compound 26]	0.7	72	91	82	99
CN1CCC(CNc2cc(Cl)nn3c(-c4cc5nc(Nc6ccccc6)[nH]c5cc4F)cnc23)CC1 [compound 31, 6-Chloro-3-(6-fluoro-2-(phenylamino)-1H-benzo[d]imidazol-5-yl)-N-((1-methylpiperidin-4-yl)methyl)imidazo[1,2-b]pyridazin-8-amine]	100	100	77	100	90

— paper PMC6437697 (Journal of Medicinal Chemistry, 2019)
